Converted amounts (≈) assume the structure as drawn.
How the values were obtained:
Type in all cases: functional
[1] = tested on: Enterococcus casseliflavus; experiment: Antimicrobial activity against Enterococcus casseliflavus clinical isolate after 18 to 22 hrs by broth microdilution method
Streptococcus pneumoniae [2] = experiment: Antimicrobial activity against penicillin-resistant Streptococcus pneumoniae clinical isolate after 18 to 22 hrs by broth microdilution method
Enterococcus faecium [3] = experiment: Antimicrobial activity against vancomycin-resistant Enterococcus faecium clinical isolate after 18 to 22 hrs by broth microdilution method
Enterococcus durans = experiment: Antimicrobial activity against Enterococcus durans clinical isolate after 18 to 22 hrs by broth microdilution method
[4] = tested on: Staphylococcus haemolyticus; experiment: Antimicrobial activity against Staphylococcus haemolyticus clinical isolate after 18 to 22 hrs by broth microdilution method
[5] = tested on: Staphylococcus epidermidis; experiment: Antimicrobial activity against methicillin-resistant Staphylococcus epidermidis clinical isolate after 18 to 22 hrs by broth microdilution method
Enterococcus faecium [6] = experiment: Antimicrobial activity against Enterococcus faecium clinical isolate after 18 to 22 hrs by broth microdilution method
[7] = tested on: Staphylococcus epidermidis; experiment: Antimicrobial activity against methicillin-susceptible Staphylococcus epidermidis clinical isolate after 18 to 22 hrs by broth microdilution method
Enterococcus faecalis [8] = experiment: Antimicrobial activity against Enterococcus faecalis clinical isolate after 18 to 22 hrs by broth microdilution method
Enterococcus faecalis [9] = experiment: Antimicrobial activity against vancomycin-resistant Enterococcus faecalis clinical isolate after 18 to 22 hrs by broth microdilution method
Streptococcus agalactiae = experiment: Antimicrobial activity against Streptococcus agalactiae clinical isolate after 18 to 22 hrs by broth microdilution method
Streptococcus pyogenes = experiment: Antimicrobial activity against Streptococcus pyogenes clinical isolate after 18 to 22 hrs by broth microdilution method
Enterococcus avium = experiment: Antimicrobial activity against Enterococcus avium clinical isolate after 18 to 22 hrs by broth microdilution method
Enterococcus gallinarum = experiment: Antimicrobial activity against Enterococcus gallinarum clinical isolate after 18 to 22 hrs by broth microdilution method
Staphylococcus aureus [10] = experiment: Antimicrobial activity against methicillin-resistant Staphylococcus aureus clinical isolate after 18 to 22 hrs by broth microdilution method
Staphylococcus aureus [11] = experiment: Antimicrobial activity against methicillin-susceptible Staphylococcus aureus clinical isolate after 18 to 22 hrs by broth microdilution method
Streptococcus pneumoniae [12] = experiment: Antimicrobial activity against penicillin-susceptible Streptococcus pneumoniae clinical isolate after 18 to 22 hrs by broth microdilution method
Enterococcus hirae = experiment: Antimicrobial activity against Enterococcus hirae clinical isolate after 18 to 22 hrs by broth microdilution method
Streptococcus pneumoniae [13] = experiment: Antimicrobial activity against penicillin-intermediate Streptococcus pneumoniae clinical isolate after 18 to 22 hrs by broth microdilution method

CC(=O)NC[C@H]1CN(c2ccc(N3CCOCC3)c(F)c2)C(=O)O1 [LINEZOLID]
MIC50 [1]: 2 µg/mL (≈ 5.93 µM)
MIC90 [1]: 2 µg/mL (≈ 5.93 µM)
MIC50 (Streptococcus pneumoniae [2]): 1 µg/mL (≈ 2.96 µM)
MIC90 (Streptococcus pneumoniae [2]): 1 µg/mL (≈ 2.96 µM)
MIC50 (Enterococcus faecium [3]): 2 µg/mL (≈ 5.93 µM)
MIC90 (Enterococcus faecium [3]): 2 µg/mL (≈ 5.93 µM)
MIC50 (Enterococcus durans): 2 µg/mL (≈ 5.93 µM)
MIC90 (Enterococcus durans): 2 µg/mL (≈ 5.93 µM)
MIC [4]: 1 µg/mL (≈ 2.96 µM)
MIC50 [4]: 1 µg/mL (≈ 2.96 µM)
MIC90 [4]: 2 µg/mL (≈ 5.93 µM)
MIC [5]: 1 µg/mL (≈ 2.96 µM)
MIC50 [5]: 1 µg/mL (≈ 2.96 µM)
MIC90 [5]: 2 µg/mL (≈ 5.93 µM)
MIC50 (Enterococcus faecium [6]): 2 µg/mL (≈ 5.93 µM)
MIC90 (Enterococcus faecium [6]): 2 µg/mL (≈ 5.93 µM)
MIC [7]: 1 µg/mL (≈ 2.96 µM)
MIC50 [7]: 1 µg/mL (≈ 2.96 µM)
MIC90 [7]: 2 µg/mL (≈ 5.93 µM)
MIC50 (Enterococcus faecalis [8]): 2 µg/mL (≈ 5.93 µM)
MIC90 (Enterococcus faecalis [8]): 2 µg/mL (≈ 5.93 µM)
MIC50 (Enterococcus faecalis [9]): 2 µg/mL (≈ 5.93 µM)
MIC90 (Enterococcus faecalis [9]): 2 µg/mL (≈ 5.93 µM)
MIC50 (Streptococcus agalactiae): 1 µg/mL (≈ 2.96 µM)
MIC90 (Streptococcus agalactiae): 2 µg/mL (≈ 5.93 µM)
MIC50 (Streptococcus pyogenes): 1 µg/mL (≈ 2.96 µM)
MIC90 (Streptococcus pyogenes): 1 µg/mL (≈ 2.96 µM)
MIC50 (Enterococcus avium): 2 µg/mL (≈ 5.93 µM)
MIC90 (Enterococcus avium): 2 µg/mL (≈ 5.93 µM)
MIC50 (Enterococcus gallinarum): 2 µg/mL (≈ 5.93 µM)
MIC90 (Enterococcus gallinarum): 2 µg/mL (≈ 5.93 µM)
MIC50 (Staphylococcus aureus [10]): 2 µg/mL (≈ 5.93 µM)
MIC90 (Staphylococcus aureus [10]): 4 µg/mL (≈ 11.9 µM)
MIC50 (Staphylococcus aureus [11]): 4 µg/mL (≈ 11.9 µM)
MIC90 (Staphylococcus aureus [11]): 4 µg/mL (≈ 11.9 µM)
MIC50 (Streptococcus pneumoniae [12]): 0.5 µg/mL (≈ 1.48 µM)
MIC90 (Streptococcus pneumoniae [12]): 1 µg/mL (≈ 2.96 µM)
MIC50 (Enterococcus hirae): 2 µg/mL (≈ 5.93 µM)
MIC90 (Enterococcus hirae): 2 µg/mL (≈ 5.93 µM)
MIC50 (Streptococcus pneumoniae [13]): 0.5 µg/mL (≈ 1.48 µM)
MIC90 (Streptococcus pneumoniae [13]): 1 µg/mL (≈ 2.96 µM)

CN[C@H](CC(C)C)C(=O)N[C@H]1C(=O)N[C@@H](CC(N)=O)C(=O)N[C@H]2C(=O)N[C@H]3C(=O)N[C@H](C(=O)N[C@H](C(=O)O)c4cc(O)cc(O)c4-c4cc3ccc4O)[C@H](O)c3ccc(c(Cl)c3)Oc3cc2cc(c3O[C@@H]2O[C@H](CO)[C@@H](O)[C@H](O)[C@H]2O[C@H]2C[C@](C)(N)[C@H](O)[C@H](C)O2)Oc2ccc(cc2Cl)[C@H]1O [VANCOMYCIN]
MIC50 [1]: 0.5 µg/mL (≈ 0.345 µM)
MIC90 [1]: 4 µg/mL (≈ 2.76 µM)
MIC50 (Streptococcus pneumoniae [2]): 0.25 µg/mL (≈ 0.173 µM)
MIC90 (Streptococcus pneumoniae [2]): 0.25 µg/mL (≈ 0.173 µM)
MIC (Enterococcus faecium [3]): > 32 µg/mL
MIC50 (Enterococcus faecium [3]): > 32 µg/mL
MIC90 (Enterococcus faecium [3]): > 32 µg/mL
MIC50 (Enterococcus durans): 0.5 µg/mL (≈ 0.345 µM)
MIC90 (Enterococcus durans): 4 µg/mL (≈ 2.76 µM)
MIC50 [4]: 1 µg/mL (≈ 0.69 µM)
MIC90 [4]: 1 µg/mL (≈ 0.69 µM)
MIC50 [5]: 2 µg/mL (≈ 1.38 µM)
MIC90 [5]: 2 µg/mL (≈ 1.38 µM)
MIC50 (Enterococcus faecium [6]): 0.5 µg/mL (≈ 0.345 µM)
MIC90 (Enterococcus faecium [6]): 1 µg/mL (≈ 0.69 µM)
MIC50 [7]: 1 µg/mL (≈ 0.69 µM)
MIC90 [7]: 1 µg/mL (≈ 0.69 µM)
MIC50 (Enterococcus faecalis [8]): 1 µg/mL (≈ 0.69 µM)
MIC90 (Enterococcus faecalis [8]): 2 µg/mL (≈ 1.38 µM)
MIC50 (Enterococcus faecalis [9]): > 32 µg/mL
MIC90 (Enterococcus faecalis [9]): > 32 µg/mL
MIC (Streptococcus agalactiae): 0.25 µg/mL (≈ 0.173 µM)
MIC50 (Streptococcus agalactiae): 0.25 µg/mL (≈ 0.173 µM)
MIC90 (Streptococcus agalactiae): 0.5 µg/mL (≈ 0.345 µM)
MIC50 (Streptococcus pyogenes): 0.25 µg/mL (≈ 0.173 µM)
MIC90 (Streptococcus pyogenes): 0.25 µg/mL (≈ 0.173 µM)
MIC (Enterococcus avium): 0.25 µg/mL (≈ 0.173 µM)
MIC50 (Enterococcus avium): 0.25 µg/mL (≈ 0.173 µM)
MIC90 (Enterococcus avium): 0.5 µg/mL (≈ 0.345 µM)
MIC50 (Enterococcus gallinarum): 0.5 µg/mL (≈ 0.345 µM)
MIC90 (Enterococcus gallinarum): 4 µg/mL (≈ 2.76 µM)
MIC50 (Staphylococcus aureus [10]): 1 µg/mL (≈ 0.69 µM)
MIC90 (Staphylococcus aureus [10]): 1 µg/mL (≈ 0.69 µM)
MIC50 (Staphylococcus aureus [11]): 0.5 µg/mL (≈ 0.345 µM)
MIC90 (Staphylococcus aureus [11]): 1 µg/mL (≈ 0.69 µM)
MIC50 (Streptococcus pneumoniae [12]): 0.12 µg/mL (≈ 0.0828 µM)
MIC90 (Streptococcus pneumoniae [12]): 0.25 µg/mL (≈ 0.173 µM)
MIC50 (Enterococcus hirae): 0.5 µg/mL (≈ 0.345 µM)
MIC90 (Enterococcus hirae): 4 µg/mL (≈ 2.76 µM)
MIC50 (Streptococcus pneumoniae [13]): 0.25 µg/mL (≈ 0.173 µM)
MIC90 (Streptococcus pneumoniae [13]): 0.25 µg/mL (≈ 0.173 µM)

Reference: ChEMBL document CHEMBL1629583, “Establishment of in vitro susceptibility testing methodologies and comparative activities of piperacillin in combination with the penem {beta}-lactamase inhibitor BLI-489” (2009)
